Publication PMC11997890, “In Vivo and In Vitro Pharmacokinetic Studies of a Dual Topoisomerase I/II Inhibitor” (ACS Pharmacology & Translational Science, 2025)

Tests used:
[1] = In vitro biotransformation of P8-D6 with mouse tissue PNS; format: in vitro ADME; conditions: mouse liver PNS, 1 mM P8-D6, 150 min
Protocol: P8-D6 (1 mM) was incubated with postnuclear supernatant (PNS), microsomes, or S9 reaction mixture of various tissue samples (liver, kidney, lung, spleen, and colon) from different donor species (pigs, mice, rats, and humans) for 150 min (study preparation scheme supplied as Figure S5). The commercial human and rat enzymes were subjected to quality control by the supplier. Three phase I metabolites were identified. […] LC-MS and NMR spectroscopic data for the metabolites are given in Supporting Information. Based on the structural characteristics, the metabolites were named as follows: P8-DO (4), P8-D6 N-oxide (6), and P8-D6 mono (8). All metabolites were synthesized to confirm the postulated structure (chapter Synthesis of Metabolites). The extent of metabolism during in vitro incubation was highly dependent on the species (pig > mouse > rat > human) (Figure ).
For all phase I metabolism studies (except cell cultures), a 0.3 mL reaction mixture consisting of 1 mM substrate (P8-D6, P8-D6 mono, P8-D6 N-oxide), 1 mM NADPH as a cofactor, 0.67 mg/mL protein from homogenized tissue or subcellular fractions, respectively (except recombinant enzymes, where 0.5 mg/mL was used), and PBS buffer (pH 7.4) was used. All experiments were performed in biological triplicates. […]

CYP2C9 = biological target: T1, CYP2C9 (Homo sapiens, UniProt P11712); assay: In vitro CYP inhibition, marker substrate diclofenac; format: in vitro ADME
T1 construct: host or cells: human liver microsomes (one value) / recombinant CYP enzyme (other value)
T1 sequence (P11712 whole entry): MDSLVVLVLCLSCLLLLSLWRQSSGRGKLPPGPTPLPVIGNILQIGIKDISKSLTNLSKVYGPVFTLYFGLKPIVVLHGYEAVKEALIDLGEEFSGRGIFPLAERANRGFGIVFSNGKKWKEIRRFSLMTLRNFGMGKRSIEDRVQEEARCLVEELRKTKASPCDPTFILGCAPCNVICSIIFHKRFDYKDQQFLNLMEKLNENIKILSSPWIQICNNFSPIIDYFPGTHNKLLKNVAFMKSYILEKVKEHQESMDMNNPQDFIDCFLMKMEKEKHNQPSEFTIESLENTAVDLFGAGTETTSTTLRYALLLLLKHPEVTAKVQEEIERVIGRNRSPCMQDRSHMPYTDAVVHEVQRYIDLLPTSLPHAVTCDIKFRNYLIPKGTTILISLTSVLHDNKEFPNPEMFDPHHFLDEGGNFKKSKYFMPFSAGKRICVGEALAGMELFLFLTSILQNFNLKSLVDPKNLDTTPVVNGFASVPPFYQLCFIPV
Protocol: (§1) To assess metabolizing enzyme-mediated drug interactions, P8-D6 was incubated with human liver (HLM) or recombinant CYP enzymes and the respective marker substrate according to the FDA (with the exception of using amitriptyline instead of S-mephenytoin). −
(§2) However, as some conversions were catalyzed by several enzymes, the conversion rates in HLM increased (e.g., bupropion and diclofenac).
(§3) To examine a possible in vitro CYP inhibition, the following CYP enzymes and marker substrates were investigated according to the FDA: , phenacetin (CYP1A2), bupropion (CYP2B6), amodiaquine (CYP2C8), diclofenac (CYP2C9), amitriptyline (CYP2C19), dextromethorphan (CYP2D6), testosterone (CYP3A4), and nifedipine (CYP3A4). Incubation was performed in a 0.2 mL reaction mix consisting of PBS buffer (pH 7.4), 1 mM marker substrate, 1 mM NADPH, and either 0.5 mg/mL recombinant CYP enzyme or human liver microsomes. P8-D6 was added for a final concentration of 0.5 μM, 1 μM, 5 μM, 10 μM, 25 μM, 50 μM, 100 μM, 500 μM, 1000 μM, and (in some cases) 5000 μM. Sample preparation was performed according to in vitro biotransformation.

CYP2B6 = biological target: T2, CYP2B6 (Homo sapiens, UniProt P20813); assay: In vitro CYP inhibition, marker substrate bupropion; format: in vitro ADME
T2 construct: host or cells: human liver microsomes (one value) / recombinant CYP enzyme (other value)
T2 sequence (P20813 whole entry): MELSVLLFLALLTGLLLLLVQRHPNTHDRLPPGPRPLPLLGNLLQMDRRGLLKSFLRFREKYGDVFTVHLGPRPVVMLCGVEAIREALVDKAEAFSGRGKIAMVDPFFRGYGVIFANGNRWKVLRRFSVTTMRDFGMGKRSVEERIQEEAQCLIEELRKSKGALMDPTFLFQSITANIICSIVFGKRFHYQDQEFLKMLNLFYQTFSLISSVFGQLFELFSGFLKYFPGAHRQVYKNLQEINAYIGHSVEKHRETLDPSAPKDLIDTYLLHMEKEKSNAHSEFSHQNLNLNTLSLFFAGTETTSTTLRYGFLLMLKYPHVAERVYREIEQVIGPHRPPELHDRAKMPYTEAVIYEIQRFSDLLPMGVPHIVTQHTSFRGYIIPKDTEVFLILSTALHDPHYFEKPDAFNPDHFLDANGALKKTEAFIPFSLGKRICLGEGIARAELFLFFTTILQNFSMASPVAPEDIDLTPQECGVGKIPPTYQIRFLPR
Protocol: as §1, §2, §3

CYP3A4 = biological target: T3, CYP3A4 (Homo sapiens, UniProt P08684); assay: In vitro CYP inhibition, marker substrate testosterone; format: in vitro ADME
T3 construct: host or cells: human liver microsomes (one value) / recombinant CYP enzyme (other value)
T3 sequence (P08684 whole entry): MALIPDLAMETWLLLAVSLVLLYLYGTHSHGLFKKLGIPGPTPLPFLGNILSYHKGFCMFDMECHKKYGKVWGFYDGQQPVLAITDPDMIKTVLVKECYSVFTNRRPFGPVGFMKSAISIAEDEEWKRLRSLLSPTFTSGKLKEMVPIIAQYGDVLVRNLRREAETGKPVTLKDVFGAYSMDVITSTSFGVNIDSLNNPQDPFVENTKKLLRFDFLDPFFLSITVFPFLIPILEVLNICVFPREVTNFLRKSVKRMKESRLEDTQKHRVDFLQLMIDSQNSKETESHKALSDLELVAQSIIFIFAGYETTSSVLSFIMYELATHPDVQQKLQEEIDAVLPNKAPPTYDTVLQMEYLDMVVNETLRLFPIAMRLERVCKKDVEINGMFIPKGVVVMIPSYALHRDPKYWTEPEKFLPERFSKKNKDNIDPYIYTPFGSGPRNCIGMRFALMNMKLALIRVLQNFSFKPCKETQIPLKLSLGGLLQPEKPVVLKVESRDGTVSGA
Protocol: as §1, §2, §3

BCRP (ABCG2) = biological target: T4, BCRP (ABCG2) (Homo sapiens, UniProt Q9UNQ0); assay: Transporter inhibition, calcein-AM accumulation in MDCKII cells (BCRP overexpression); format: cell-based; conditions: intracellular accumulation of calcein-AM
T4 construct: expressed in transfected cells; host or cells: MDCKII
T4 sequence (Q9UNQ0 whole entry, species assumed): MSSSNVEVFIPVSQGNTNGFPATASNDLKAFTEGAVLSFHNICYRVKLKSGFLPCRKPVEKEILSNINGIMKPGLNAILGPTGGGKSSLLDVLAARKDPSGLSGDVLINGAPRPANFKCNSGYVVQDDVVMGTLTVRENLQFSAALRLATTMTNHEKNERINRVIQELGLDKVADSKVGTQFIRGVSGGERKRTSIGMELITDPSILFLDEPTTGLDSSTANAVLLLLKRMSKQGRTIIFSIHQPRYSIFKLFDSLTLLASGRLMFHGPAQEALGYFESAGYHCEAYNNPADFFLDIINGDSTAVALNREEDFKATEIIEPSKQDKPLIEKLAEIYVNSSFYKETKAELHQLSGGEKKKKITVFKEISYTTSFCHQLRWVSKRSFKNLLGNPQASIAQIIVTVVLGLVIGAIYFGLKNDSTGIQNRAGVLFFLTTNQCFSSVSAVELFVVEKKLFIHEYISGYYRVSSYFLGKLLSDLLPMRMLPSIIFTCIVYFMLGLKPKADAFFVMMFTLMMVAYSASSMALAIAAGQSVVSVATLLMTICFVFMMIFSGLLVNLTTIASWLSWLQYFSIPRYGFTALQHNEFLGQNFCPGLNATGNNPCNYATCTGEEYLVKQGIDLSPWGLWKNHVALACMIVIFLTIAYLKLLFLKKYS
Protocol: The inhibitory characteristics of P8-D6 on the classic efflux transporters P-GP and BCRP (ABCG2) were evaluated (Figure ).
A potential interaction of P8-D6 with the export protein P-GP (ABCB1) was evaluated in MDCK (P-GP overexpression) and MDCKII (BCRP overexpression) cells. P-GP interaction was determined by the measurement of calcein accumulation within the cells according to Bauer et al. Calcein-acetoxymethylester (calcein-AM) is a nonfluorescent, lipophilic and therefore highly cell-permeable ester. Once inside the cell, the ester bonds are rapidly cleaved by nonspecific esterases, generating highly fluorescent calcein, which is trapped inside the cell because of its hydrophilic nature. Because calcein-AM is a substrate for P-GP, inhibition of the transporter decreases efflux, which results in a higher intracellular fluorescence signal. […] Calcein-AM (MoBiTec, Göttingen, FRG) was added to a final concentration of 1 μM and incubated for 30 min at 37 °C. Afterward, the cells were immediately washed 3 times with ice-cold Krebs–Ringer buffer and lysed with 1% Triton X-100. […] Each determination was repeated 3 times in 2 experiments to ensure reproducibility. All fluorescence values were corrected by subtracting the background fluorescence.

[2] = system: kidney tissue (γH2AX, c-PARP, OGG1); assay: In vivo tolerability and immunohistochemistry of tissue damage markers; parameters: species or system Sprague–Dawley rats
Excerpt: Organs were immunostained with antibodies to detect reactive oxygen species, DNA damage, and caspase levels, not showing abnormalities in the liver, lungs, spleen, kidneys, and colon (Figure E).
OGG1, a marker for oxidative DNA damage produced by reactive oxygen species, was expressed weakly in the background and cytoplasm of the negative control samples of kidney tissue. […] No specific immunohistochemical reactions could be observed for the other organs.
Tissues were fixed with 4% formaldehyde and dehydrated with an ethanol series before embedding in paraffin. Tissue sections were cut using a microtome; the tissue sections were deparaffinized and rehydrated in water. Hematoxylin and eosin (H and E) staining was carried out on a Tissue Tek Prisma Plus autostainer (SAKURA). For immunohistochemistry, sections were stained with antibodies directed against γH2AX (Cell Signaling #9718, dilution 1:200, DNA-damage), OGG1 (Proteintech #15125-1-AP, dilution 1:200, DNA-damage), and c-PARP (Abcam #ab32064, dilution 1:200, DNA-damage). […] The immunoreaction was visualized with the Bond Polymer Refine Detection Kit (DS 9800; brown labeling; Novocastra; Leica Biosystems GmbH), resulting in a brown color and counterstained with hematoxylin. The IHC stainings were carried out on the autostainer BOND RX system (Leica Biosystems GmbH). The stained tissue sections were digitalized with a NanoZoomer S60 Digital slide scanner (Hamamatsu) at a 40× magnification objective and analyzed by board-certified pathologists. The samples from three mice were analyzed.

With `COc1cc(-c2cc3ccncc3c3nc(OCC[N+](C)(C)[O-])c4cnccc4c23)cc(OC)c1OC` [P8-D6 N-oxide] as the compound, how does the “formation of metabolite from P8-D6” value [1] read?
Its value is 3.08%.

For `COc1cc(-c2cc3ccncc3c3nc(OCCN(C)C)c4cnccc4c23)cc(OC)c1OC` [P8-D6, 6-(N,N-dimethyl-2-aminoethoxy)-11-(3,4,5-trimethoxyphenyl)-pyrido[3,4-c][1,9]-phenanthroline], which IC50 (CYP2C9; HLM) is on record?
The IC50 was 162 µM.

And the IC50 (CYP2C9; recombinant CYP isoenzyme)?
The IC50 was 71.4 µM.

And the IC50 (CYP2B6; HLM)?
Its IC50 is greater than 1 mM.

And the IC50 (CYP2B6; recombinant CYP isoenzyme)?
The IC50 was greater than 1 mM.

What about the IC50 (CYP3A4; HLM) of the same compound?
The IC50 was 165 µM.

What about the IC50 (CYP3A4; recombinant CYP isoenzyme) of the same compound?
Its IC50 is 94 µM.

And the IC50 (BCRP (ABCG2))?
Its IC50 is 16.3 µM.

And the “OGG1 immunohistochemistry (oxidative DNA damage)” value ([2]; kidney tissue)?
The value was “did not significantly differ from the negative control”.

What about the “γH2AX immunohistochemistry (marker for DNA damage)” value ([2]; kidney tissue) of the same compound?
The value was “diffuse positivity”.

What about the signs of toxicity ([2]; p.o. 50 mg/kg BW and i.v. 10 mg/kg BW) of the same compound?
Its signs of toxicity is “no signs of toxicity”.

What about the “C-PARP immunohistochemistry (marker of apoptosis)” value ([2]; vs positive and negative control) of the same compound?
The value was “no significant difference”.
